Assay results as given in patent publication US20100331361A1, “PHARMACEUTICAL COMPOSITION CONTAINING ALPHA-ADRENERGIC RECEPTOR ANTAGONIST AND AN ANTI-MUSCARINIC AGENT AND METHOD OF IMPROVING LOWER URINARY TRACT SYMPTOMS ASSOCIATED WITH PROSTATIC HYPERTROPHY” (ASTELLAS PHARMA INC., priority 2007, published 2010).
Counter-ions that a name gives are not always drawn.

Tests used:
[1] = test system: patients with prostatic hypertrophy accompanied with overactive bladder symptoms; conditions: cited from earlier work
[2] = test system: Male human patients with prostatic hypertrophy who still had symptoms of overactive bladder; assay: I-PSS evaluation after four weeks, Single Group vs Combination Group (Example 1); format: in vivo; set-up: key to Scores of voiding symptoms (2) (4) (7) / Scores of voiding symptoms (2) (4) (7), Change / Total scores of I-PSS / Scores of storage symptoms (1) (3) (5) (6) / Scores of storage symptoms (1) (3) (5) (6), Change: summed item scores, each 0-5; higher = worse symptoms
Description: I-PSS is one of the criteria to evaluate the severity of the foregoing lower urinary tract symptoms by scoring responses to the following questions:
(2) During the last month, have you had to urinate again in less than two hours after you last urinated? (3) During the last month, have you experienced interrupted urination? (4) During the last month, have you found it difficult to postpone urination? […] (6) During the last month, have you had to strain to urinate? (7) During the last month, how many times did you typically have to get up to urinate after you went to bed until you got up in the morning?
The indices (1), (3), (5) and (6) evaluate voiding symptoms, and indices (2), (4) and (7) evaluate storage symptoms. Among these, responses to (1)-(6) are scored: 0 if the response was not at all, 1 if fewer than 1 time in 5, 2 if fewer than 1 time in 2, 3 if about 1 time in 2, 4 if more than 1 time in 2, and 5 if almost always. Additionally, the responses to (7) are respectively scored: 0, 1, 2, 3, 4, and 5 if the response was none, 1 time, 2 times, 3 times, 4 times, and 5 times or more.
Male human patients with prostatic hypertrophy who still had symptoms of overactive bladder (urgency, pollakiuria, urinary incontinence and/or nocturia, and the like.) after treatment with an α receptor antagonist for four weeks or longer were allocated for administration to two treatment groups: (1) tamsulosin hydrochloride 0.2 mg (hereinafter referred to as “Single Group”), and (2) tamsulosin hydrochloride 0.2 mg and solifenacin succinate 2.5 mg (hereinafter referred to as “Combination Group”), and then their symptoms were evaluated by I-PSS after four weeks of treatment. In Table 1 since the score of I-PSS becomes greater as the symptom worsens, greater minus change in scores indicates greater efficacy for the symptoms.

[3] = After treatment of 4 weeks, tamsulosin hydrochloride 0.2 mg alone or with solifenacin succinate 2.5 mg
[4] = Before treatment, tamsulosin hydrochloride 0.2 mg alone or with solifenacin succinate 2.5 mg
[5] = Change after 4 weeks, tamsulosin hydrochloride 0.2 mg alone or with solifenacin succinate 2.5 mg

CCCOC(C(=O)OC1CCN(C)CC1)(c1ccccc1)c1ccccc1 [Propiverine]
acute urinary retention (AUR) ([1]; added to doxazosin): no acute AUR was observed
effect on the urinary flow rate ([1]; added to doxazosin): did not affect

CCOc1ccccc1OCCN[C@H](C)Cc1ccc(OC)c(S(N)(=O)=O)c1 [Single, (R)-5-(2-{[2-(2-ethoxyphenoxy)ethyl]amino}propyl-2-methoxybenzene-1-sulfonamide hydrochloride]
Scores of storage symptoms (1) (3) (5) (6) [2, 3]: 5.8
Scores of voiding symptoms (2) (4) (7) [2, 3]: 4.2
Total scores of I-PSS [2, 3]: 10.8
Total scores of I-PSS ([2]; Before treatment, tamsulosin hydrochloride 0.2 mg alone (Single) or with solifenacin succinate 2.5 mg (Combination)): 11.6
Scores of storage symptoms (1) (3) (5) (6) [2, 4]: 6.5
Scores of voiding symptoms (2) (4) (7) [2, 4]: 4.2
Scores of storage symptoms (1) (3) (5) (6), Change [2, 5]: −0.7
Scores of voiding symptoms (2) (4) (7), Change [2, 5]: 0.0
Total scores of I-PSS, Change [2, 5]: −0.8

COc1cc2nc(N3CCN(C(=O)C4COc5ccccc5O4)CC3)nc(N)c2cc1OC (centres unmarked) [doxazosin]
improvement of the storage symptom score ([1]; in vivo): 2.9 points
improvement of the total I-PSS ([1]; in vivo): 7.3 points
improvement of the voiding symptom score ([1]; in vivo): 4.5 points
